Test results: patent US10351522B2, “Sulfonamide derivative and pharmaceutically acceptable acid addition salt thereof” (UNIVERSITY OF TSUKUBA, priority 2015, dated 2019)
Read-outs that look alike come from different tables or passages of the source.

Assays:
[1] = tested on: C57BL/6 wild-type mouse; assay: Awakening effect on wild-type mouse by light period intraventricular administration (EEG/EMG hypnogram); type: in vivo; settings: 10 nmol intraventricular at ZT6 (light period), hypnogram for 3 hr
Source text: Awakening Effect on Wild-Type Mouse by Light Period Intraventricular Administration of the Compound of the Present Invention
As the experiment animal, C57BL/6 lineage wild-type mouse (male) was used. The mice before and after 9-week-old (±1 week) underwent surgery for embedding electroencephalogram electrodes into the skull (Bregma: X=1.5; Y=0.6, Lambda: X=1.5; Y=0) and inserting electromyogram electrodes into the trapezius muscle under isoflurane anesthesia. The mice for intraventricular administration also underwent cannula embedding into lateral cerebral ventricle (Bregma: X=−0.9; Y=−0.3). From two weeks thereafter, the administration and electroencephalogram measurement were started. The experiment was conducted under a light-dark cycle environment in which the light period started at 9 (ZT0) and the dark period started at 21 (ZT12).
The test compound (compound of Example 40) (10 nmol; dissolved in 5% chromophore-containing saline) (5 μl) was injected at ZT6 into the lateral cerebral ventricle of wild-type mice under isoflurane anesthesia through cannula by using a microsyringe pump at a flow rate of 0.5 μl/min, and electroencephalogram and electromyogram was measured thereafter. The administration was started with 5% chromophore-containing saline (Vehicle) as a control, and then the test compound was administered. […]

[2] = molecular target: T1, human OX2R (Homo sapiens, UniProt O43614); assay: Agonist activity against OX2R: intracellular calcium (Fura-2AM, FDSS7000) in CHOOX2R cells; type: cell-based; settings: relative to orexin-A as full agonist (100%)
T1 construct: expressed in transfected cells; host or cells: CHO (Chinese hamster ovary) cells, line CHOOX2R, co-expressing NFAT-luciferase
T1 sequence (O43614 1-444): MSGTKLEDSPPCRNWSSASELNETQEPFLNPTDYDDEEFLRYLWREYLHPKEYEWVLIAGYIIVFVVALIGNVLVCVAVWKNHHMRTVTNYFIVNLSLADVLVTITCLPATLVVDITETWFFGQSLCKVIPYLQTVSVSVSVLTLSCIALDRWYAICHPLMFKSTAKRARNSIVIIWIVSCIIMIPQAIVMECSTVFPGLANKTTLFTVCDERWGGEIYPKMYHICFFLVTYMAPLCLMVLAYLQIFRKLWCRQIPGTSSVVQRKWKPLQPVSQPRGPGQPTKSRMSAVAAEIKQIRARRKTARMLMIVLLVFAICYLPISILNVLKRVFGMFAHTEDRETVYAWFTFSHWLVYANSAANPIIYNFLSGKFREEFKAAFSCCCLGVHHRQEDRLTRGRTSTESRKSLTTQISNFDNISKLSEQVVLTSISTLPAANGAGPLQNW
Summary of the method: (§1)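 Response is agonist activity at 0.1, 1.0 or 10 μM compound as a percentage of the orexin-A full-agonist maximum, taken from 340/380 nm Fura-2 ratio changes. Each cell line is CHO constitutively expressing human OX1R or OX2R with NFAT-luciferase, dye-loaded 60 min with 5 μM Fura-2AM; compound range 10^−7–10^−5 M, 1% DMSO.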

[3] = molecular target: T2, human OX1R (Homo sapiens, UniProt O43613); assay: Agonist activity against OX1R: intracellular calcium (Fura-2AM, FDSS7000) in CHOOX1R cells; type: cell-based; settings: for Emax at 0.1 µM / Emax at 1 µM / Emax at 10 µM: read-out: Response (%) OX1R
T2 construct: expressed in transfected cells; host or cells: CHO (Chinese hamster ovary) cells, line CHOOX1R, co-expressing NFAT-luciferase
T2 sequence (O43613 1-425): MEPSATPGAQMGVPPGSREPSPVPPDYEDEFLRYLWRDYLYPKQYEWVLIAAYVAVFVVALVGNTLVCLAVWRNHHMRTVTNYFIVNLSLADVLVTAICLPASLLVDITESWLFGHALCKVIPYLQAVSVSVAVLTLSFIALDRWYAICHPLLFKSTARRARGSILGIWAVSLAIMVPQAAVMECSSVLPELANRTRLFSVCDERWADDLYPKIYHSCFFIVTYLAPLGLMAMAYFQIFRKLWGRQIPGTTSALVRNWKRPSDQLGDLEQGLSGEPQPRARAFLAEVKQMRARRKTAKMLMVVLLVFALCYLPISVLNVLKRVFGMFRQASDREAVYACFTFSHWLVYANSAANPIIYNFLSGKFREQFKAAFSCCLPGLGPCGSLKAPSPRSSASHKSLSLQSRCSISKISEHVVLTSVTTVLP
Summary of the method: as §1

[4] = 0.1 μM test compound, relative to orexin-A as full agonist (100%)
[5] = 1.0 μM test compound, relative to orexin-A as full agonist (100%)
[6] = 10 μM test compound, relative to orexin-A as full agonist (100%)
[7] = test compound 0.1 μM, relative to orexin-A as full agonist (100%)
[8] = test compound 1.0 μM, relative to orexin-A as full agonist (100%)
[9] = test compound 10 μM, relative to orexin-A as full agonist (100%)

Row | Compound | Response (%) OX2R ([2]; 0.1 μM test compound) [%] | Response (%) OX2R ([2]; 1.0 μM test compound) [%] | Response (%) OX2R ([2]; 10 μM test compound) [%] | Response (%) OX1R [3, 4] [%] | Response (%) OX1R [3, 5] [%] | Response (%) OX1R [3, 6] [%] | Response (%) OX2R ([2]; test compound 0.1 μM) [%] | Response (%) OX2R ([2]; test compound 1.0 μM) [%] | Response (%) OX2R ([2]; test compound 10 μM) [%] | other results
1 | COc1ccc(-c2cccc(C(=O)N(C)C)c2)cc1S(=O)(=O)Nc1cccc(NC(=O)Nc2cccc(N(C)C)c2)c1 [Example 40, 3′-(N-(3-(3-(3-(dimethylamino)phenyl)ureido)phenyl)sulfamoyl)-4′-methoxy-N,N-dimethyl-[1,1′-biphenyl]-3-carboxamide] | 77 | 60 | 52 | – | – | – | – | – | – | conscious time compared to Vehicle administration [1]: increased; Emax at 0.1 µM [3, 4]: < 5%; Emax at 1 µM [3, 5]: < 5%; Emax at 10 µM [3, 6]: < 5%
2 | COc1ccc(Nc2cccc(NS(=O)(=O)c3cc(-c4cccc(C(=O)N(C)C)c4)ccc3OC)c2)cc1OC [Example 33] | 37 | 92 | 87 | <5 | <5 | 50 | – | – | – | –
3 | COc1ccc(Nc2cccc(NS(=O)(=O)c3cc(-c4cccc(C(=O)N(C)C)c4)ccc3OC)c2)cc1 [Example 29] | 11 | 84 | 81 | <5 | <5 | <5 | – | – | – | –
4 | COc1ccc(-c2cccc(C(=O)N(C)C)c2)cc1S(=O)(=O)Nc1cccc(NC(=O)Nc2ccc([N+](=O)[O-])cc2)c1 [Example 61] | 24 | 105 | 99 | <5 | <5 | 7 | – | – | – | –
5 | COc1ccc(-c2cccc(C(=O)N(C)C)c2)cc1S(=O)(=O)Nc1cccc(Nc2cccc(C(F)(F)F)c2)c1 [Example 35] | <5 | 35 | 63 | <5 | <5 | <5 | – | – | – | –
6 | COc1ccc(-c2cccc(C(=O)N(C)C)c2)cc1S(=O)(=O)Nc1cccc(N(C)C(=O)N(C)c2cccc(N(C)C)c2)c1 [Example 126, 3′-(N-(3-(3-(3-(dimethylamino)phenyl)-1,3-dimethylureido)phenyl)sulfamoyl)-4′-methoxy-N,N-dimethyl-[1,1′-biphenyl]-3-carboxamide] | – | – | – | – | – | – | 7 | 37 | 85 | Emax at 0.1 µM [3]: 5%; Emax at 1 µM [3]: 5%; Emax at 10 µM [3]: < 5%
7 | COc1ccc(-c2cccc(C(=O)N(C)C)c2)cc1S(=O)(=O)Nc1cccc(NC(=O)c2ccc3c(c2)OCO3)c1 [Example 5] | 10 | 8 | 19 | 8 | 8 | 7 | – | – | – | –
8 | COc1ccc(-c2cccc(C(=O)N(C)C)c2)cc1S(=O)(=O)Nc1cccc(NC(=O)Nc2ccc(NC(=NC(=O)OC(C)(C)C)NC(=O)OC(C)(C)C)cc2)c1 [Example 58] | <5 | <5 | 63 | <5 | <5 | <5 | – | – | – | –
9 | COc1ccc(-c2cccc(C(=O)N(C)C)c2)cc1S(=O)(=O)Nc1cccc(NC(=O)Nc2cc(OC)c(OC)c(OC)c2)c1 [Example 54] | 91 | 71 | 61 | <5 | <5 | 10 | – | – | – | –
10 | COc1ccc(-c2cccc(C(=O)N(C)C)c2)cc1S(=O)(=O)Nc1cccc(NC(=O)Nc2ccccc2C)c1 [Example 51] | 93 | 85 | 88 | <5 | 36 | 67 | – | – | – | –
11 | COc1ccc(-c2cccc(C(=O)N(C)C)c2)cc1S(=O)(=O)Nc1cccc(NC(=O)Nc2cc([N+](=O)[O-])cc([N+](=O)[O-])c2)c1 [Example 47] | 7 | 81 | 102 | <5 | <5 | <5 | – | – | – | –

Second part, led by results:

Row | Response (%) OX2R ([2]; 0.1 μM test compound) [%] | Response (%) OX2R ([2]; 1.0 μM test compound) [%] | Response (%) OX2R ([2]; 10 μM test compound) [%] | Response (%) OX1R [3, 4] [%] | Response (%) OX1R [3, 5] [%] | Response (%) OX1R [3, 6] [%] | Response (%) OX2R ([2]; test compound 0.1 μM) [%] | Response (%) OX2R ([2]; test compound 1.0 μM) [%] | Response (%) OX2R ([2]; test compound 10 μM) [%] | Compound | other results
12 | <5 | <5 | 6 | <5 | <5 | <5 | – | – | – | COc1ccc(-c2cccc(C(=O)N(C)C)c2)cc1S(=O)(=O)Nc1cccc(NC(=O)Nc2cccc(NC(=N)N)c2)c1 [Example 65] | –
13 | – | – | – | – | – | – | 85 | 93 | 92 | COc1ccc(-c2cccc(C(=O)N(C)C)c2)cc1S(=O)(=O)Nc1cccc(N2CCN(c3ccccc3N(C)C)C2=O)c1 [Example 129] | Response (%) OX1R [3, 7]: <5%; Response (%) OX1R [3, 8]: 41%; Response (%) OX1R [3, 9]: 81%
14 | – | – | – | – | – | – | <5 | <5 | 11 | COc1ccccc1Nc1c(Nc2cccc(NS(=O)(=O)c3cc(-c4cccc(C(=O)N(C)C)c4)ccc3OC)c2)c(=O)c1=O [Example 83] | Response (%) OX1R [3, 7]: <5%; Response (%) OX1R [3, 8]: <5%; Response (%) OX1R [3, 9]: 9%
15 | – | – | – | – | – | – | 19 | 14 | 76 | COc1ccc(-c2cccc(C(=O)N(C)C)c2)cc1S(=O)(=O)Nc1cccc(N)c1 [Example 99] | Response (%) OX1R [3, 7]: 8%; Response (%) OX1R [3, 8]: 8%; Response (%) OX1R [3, 9]: 9%
16 | <5 | <5 | 51 | – | – | – | – | – | – | COc1ccc(-c2cccc(C(=O)N(C)C)c2)cc1S(=O)(=O)Nc1cccc(Nc2c(OC)c(=O)c2=O)c1 [Example 79, 4′-methoxy-3′-(N-(3-((2-methoxy-3,4-dioxocyclobut-1-en-1-yl)amino)phenyl)sulfamoyl)-N,N-dimethyl-[1,1′-biphenyl]-3-carboxamide] | Emax at 0.1 µM [3, 4]: < 5%; Emax at 1 µM [3, 5]: < 5%; Emax at 10 µM [3, 6]: < 5%
17 | – | – | – | – | – | – | 64 | 99 | 106 | COc1ccc(-c2cccc(C(=O)N(C)C)c2)cc1S(=O)(=O)Nc1cccc(N2CCN(c3cccc(N(C)C)c3)C2=O)c1 [Example 130] | Response (%) OX1R [3, 7]: <5%; Response (%) OX1R [3, 8]: <5%; Response (%) OX1R [3, 9]: 6%
18 | – | – | – | – | – | – | 13 | 11 | 67 | COc1ccc(-c2cccc(C(=O)N(C)C)c2)cc1S(=O)(=O)Nc1cccc(N=Nc2ccc(O)cc2NC(=O)OC(C)(C)C)c1 [Example 98] | Response (%) OX1R [3, 7]: 8%; Response (%) OX1R [3, 8]: 8%; Response (%) OX1R [3, 9]: 9%
